Laboratory results from patent US20240270821A1, “GIP/GLP1/GCG TRI-RECEPTOR AGONISTS AND USES THEREOF” (priority 2023, published 2024).
Where two headings read alike, the source gives them in different places. Starred links: 1 amine or outer side, 2 acyl side, 3 side chain; linkers in the order of their positions; H or OH if unused. Non-standard residues stand in square brackets, D forms with d. Residues, ends and D or L forms follow the SMILES beside them. Groups on a side chain read outwards from the residue. *: point of attachment. C20 diacid = O=C(O)CCCCCCCCCCCCCCCCCCC(=O)*; C18 diacid = O=C(O)CCCCCCCCCCCCCCCCC(=O)*; αMePhe(2-F) = C[C@](N)(Cc1ccccc1F)C(=O)O; γGlu = O=C(O)[C@H](CCC(=O)[*:2])N[*:1]; αMe4Pal = C[C@](N)(Cc1ccncc1)C(=O)O; αMeY = C[C@](N)(Cc1ccc(O)cc1)C(=O)O; 4Pal = N[C@@H](Cc1ccncc1)C(=O)O; αMeL = CC(C)C[C@](C)(N)C(=O)O; Orn = NCCC[C@H](N)C(=O)O; Dab = NCC[C@H](N)C(=O)O; Dap = NC[C@H](N)C(=O)O; AEEA = NCCOCCOCC(=O)O; Aib = CC(C)(N)C(=O)O

What was measured:
Type in all cases: cell-based
hGIPR [1] = biological target: T1, hGIPR (Homo sapiens, UniProt P48546); assay: Functional cAMP activity in the presence of 1% HSA; conditions: read-out: cAMP Rel EC50, hGIPR
T1 sequence (P48546 22-466): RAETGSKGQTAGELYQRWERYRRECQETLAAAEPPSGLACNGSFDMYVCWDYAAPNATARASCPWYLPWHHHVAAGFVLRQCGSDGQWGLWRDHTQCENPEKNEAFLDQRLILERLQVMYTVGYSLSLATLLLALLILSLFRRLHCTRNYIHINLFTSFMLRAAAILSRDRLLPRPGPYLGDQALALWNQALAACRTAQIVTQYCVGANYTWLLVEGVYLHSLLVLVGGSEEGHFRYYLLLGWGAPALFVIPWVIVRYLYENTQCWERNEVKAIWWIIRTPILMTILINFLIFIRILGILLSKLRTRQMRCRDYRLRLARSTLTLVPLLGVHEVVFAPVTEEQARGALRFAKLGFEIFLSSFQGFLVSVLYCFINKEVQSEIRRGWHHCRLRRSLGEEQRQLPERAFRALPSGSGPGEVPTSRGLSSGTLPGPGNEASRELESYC

hGcgR = hGcgR (Homo sapiens, UniProt P47871); assay: Functional cAMP activation in the presence of 0.1% casein (no HSA); conditions: geometric mean, read-out: Relative cAMP EC50, hGcgR;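 further: intracellular cAMP rise after 30 min at 37 °C, read by HTRF against a cAMP standard curve, scaled from buffer only (0%) to maximal control ligand response (100%)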
hGLP-1R [2] = biological target: T2, hGLP-1R (Homo sapiens, UniProt P43220); assay: as above; conditions: geometric mean, read-out: Relative cAMP EC50, hGLP-1R;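 further: intracellular cAMP rise after 30 min at 37 °C read by HTRF, normalized between buffer only (0%) and maximal control ligand (100%), four-parameter variable-slope fit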
hGIPR [3] = biological target: T1, hGIPR; assay: as above; conditions: geometric mean, read-out: Relative cAMP EC50, hGIPR
hGLP-1R [4] = biological target: T2, hGLP-1R; assay: Functional cAMP activity in the presence of 1% HSA; conditions: read-out: cAMP Rel EC50, hGLP-1R
human GcgR = human GcgR (Homo sapiens, UniProt P47871); assay: Functional cAMP activity in the presence of 1% HSA; conditions: read-out: cAMP Rel EC50, hGcgR
[5] = in the presence of 0.1% casein (no HSA)
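Wherever Relative cAMP EC50, hGIPR is given: intracellular cAMP rise after 30 min at 37 °C read by HTRF against a standard curve, scaled between buffer alone (0%) and top control ligand concentration (100%), four-parameter fit.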

human GcgR, sequence (P47871 26-477): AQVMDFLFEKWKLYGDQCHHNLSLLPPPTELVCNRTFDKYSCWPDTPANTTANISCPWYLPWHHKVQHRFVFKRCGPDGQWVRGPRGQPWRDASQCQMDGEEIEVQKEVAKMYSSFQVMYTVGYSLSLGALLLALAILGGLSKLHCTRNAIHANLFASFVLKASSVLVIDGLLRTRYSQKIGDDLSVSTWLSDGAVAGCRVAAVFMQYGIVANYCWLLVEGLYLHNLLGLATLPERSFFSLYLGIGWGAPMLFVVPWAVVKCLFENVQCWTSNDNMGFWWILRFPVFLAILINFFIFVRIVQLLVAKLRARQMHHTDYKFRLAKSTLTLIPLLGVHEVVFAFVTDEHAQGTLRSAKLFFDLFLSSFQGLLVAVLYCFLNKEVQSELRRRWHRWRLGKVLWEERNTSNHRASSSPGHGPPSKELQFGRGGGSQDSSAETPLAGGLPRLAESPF
hGcgR, sequence (P47871 26-477): as above
T2 sequence (P43220 24-463): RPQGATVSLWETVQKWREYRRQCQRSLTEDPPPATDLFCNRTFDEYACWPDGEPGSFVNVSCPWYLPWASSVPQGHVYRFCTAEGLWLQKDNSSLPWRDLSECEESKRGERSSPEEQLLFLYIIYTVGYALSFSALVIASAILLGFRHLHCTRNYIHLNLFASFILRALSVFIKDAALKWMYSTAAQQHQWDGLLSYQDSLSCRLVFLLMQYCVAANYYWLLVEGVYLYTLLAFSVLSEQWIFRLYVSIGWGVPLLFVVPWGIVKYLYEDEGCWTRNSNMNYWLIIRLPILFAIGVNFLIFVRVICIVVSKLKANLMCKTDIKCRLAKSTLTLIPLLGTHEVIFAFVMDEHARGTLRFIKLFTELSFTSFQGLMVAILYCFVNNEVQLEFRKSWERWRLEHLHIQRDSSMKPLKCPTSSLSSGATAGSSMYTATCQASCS

Compound	EC50 (hGIPR [1]; HEK-293 cells expressing hGIPR, 1% HSA, geometric mean of relative EC50) [nM]	EC50 (hGcgR; 0.1% casein, no HSA) [nM]	EC50 (hGLP-1R [2]; 0.1% casein, no HSA) [nM]	EC50 (hGIPR [3]; 0.1% casein, no HSA) [nM]	EC50 (hGLP-1R [4]; HEK-293 cells expressing hGLP-1R, 1% HSA, geometric mean of relative EC50) [nM]	EC50 (human GcgR; HEK-293 cells expressing hGcgR, 1% HSA, geometric mean of relative EC50) [nM]	EC50 (hGIPR [1]) [nM]	EC50 (hGcgR; [5]) [nM]	EC50 (hGLP-1R [2]; [5]) [nM]	EC50 (hGIPR [3]; [5]) [nM]	EC50 (hGLP-1R [4]) [nM]	EC50 (human GcgR) [nM]
CC[C@H](C)[C@H](NC(=O)[C@H](Cc1ccccc1)NC(=O)[C@H](C)NC(=O)C(C)(C)NC(=O)[C@H](C)NC(=O)[C@H](C)NC(=O)[C@H](CCCCNC(=O)COCCOCCNC(=O)CC[C@H](NC(=O)CCCCCCCCCCCCCCCCC(=O)O)C(=O)O)NC(=O)[C@H](CCCN)NC(=O)[C@H](CC(=O)O)NC(=O)[C@H](CC(C)C)NC(=O)[C@](C)(CC(C)C)NC(=O)[C@@H](NC(=O)[C@H](CO)NC(=O)[C@H](Cc1ccncc1)NC(=O)[C@H](CC(=O)O)NC(=O)[C@H](CO)NC(=O)[C@@H](NC(=O)[C@](C)(Cc1ccccc1F)NC(=O)[C@@H](NC(=O)CNC(=O)[C@H](CCC(N)=O)NC(=O)C(C)(C)NC(=O)[C@@H](N)Cc1ccc(O)cc1)[C@@H](C)O)[C@@H](C)O)[C@@H](C)CC)C(=O)N[C@H](CCC(=O)O)C(=O)N[C@@](C)(Cc1ccc(O)cc1)C(=O)N[C@@H](CC(C)C)C(=O)N[C@@H](CC(C)C)C(=O)N[C@@H](CCC(=O)O)C(=O)NCC(=O)NCC(=O)N1CCC[C@H]1C(=O)N[C@@H](CO)C(=O)N[C@@H](CO)C(=O)NCC(=O)N[C@@H](CCC(=O)O)C(=O)N1CCC[C@H]1C(=O)N1CCC[C@H]1C(=O)N1CCC[C@H]1C(=O)N[C@@H](CO)C(N)=O [Example 1236] (H-Y[Aib]QGT[αMePhe(2-F)]TSD[4Pal]SI[αMeL]LD[Orn]K([AEEA-γGlu-C18 diacid])AA[Aib]AFI[dE][αMeY]LLEGGPSSGEPPPS-NH2)	11.9	0.947	0.304	0.052	95.8	502						
H-Y[Aib]QGTFTSDFSK[αMeL]LDKK([AEEA-AEEA-γGlu-C18 diacid])AQ[Aib]AFIEYLLEGGESSGAPPPSGS-NH2 [Example 147]							108	4.39	4.26	0.343	964	877
H-Y[Aib]QGTFTSDFSK[αMeL]LDKK([AEEA-AEEA-γGlu-C18 diacid])AQ[Aib]AFIEYLLEGGPSSGAPPPSGS-NH2 [Example 142]							14.1	3.49	4.37	0.216	391	1230
H-Y[Aib]QGTFTSDFSK[αMeL]LDKK([AEEA-γGlu-C18 diacid])AQ[Aib]AFIEYLIEGGESSGAPPPSGS-NH2 [Example 215]							87.3	9.77	0.803	0.418	162	1510
H-Y[Aib]QGTFTSDFSK[αMeL]LDKK([AEEA-γGlu-C18 diacid])AQ[Aib]AFIEYLIE[Aib]GESSGAPPPSGS-NH2 [Example 216]							12	2.7	0.52	0.0887	90.6	895
H-Y[Aib]QGTFTSDFSK[αMeL]LDKK([AEEA-γGlu-C18 diacid])AQ[Aib]AFIEYLIE[Aib]SPSSGAPPPSGS-NH2 [Example 805]							13	3.97	0.715	0.0875	146	1210
H-Y[Aib]QGTFTSDFSK[αMeL]LDKK([AEEA-γGlu-C18 diacid])AQ[Aib]AFIEYLLEGGESSGAPPPSGS-NH2 [Example 146]							74.6	2.04	2.73	0.362	678	463
H-Y[Aib]QGTFTSDFSK[αMeL]LDKK([AEEA-γGlu-C18 diacid])AQ[Aib]AFIEYLLEGGPSSGAPPPSEG[AEEA]-NH2 [Example 56]							30.3	2.8	4.07	0.315	167	265
H-Y[Aib]QGTFTSDFSK[αMeL]LDKK([AEEA-γGlu-C18 diacid])AQ[Aib]AFIE[αMe4Pal]LIE[Aib]GPSSGAPPPSGS-NH2 [Example 912]							6.15	3.76	0.414	0.0387	59.6	955
H-Y[Aib]QGTFTSDFSK[αMeL]LDKK([AEEA-γGlu-C20 diacid])AQ[Aib]AFIEWLIEGGPSSGAPPPSEG-NH2 [Example 40]							76.7	12.3	0.693	0.139	138	2750
H-Y[Aib]QGTFTSDFSK[αMeL]LDKK([AEEA-γGlu-C20 diacid])AQ[Aib]AFIEWLLAGGPSSGEPPPSEG-NH2 [Example 20]							42.3	15.4	2.45	0.381	326	587
H-Y[Aib]QGTFTSDFSK[αMeL]LDKK([AEEA-γGlu-C20 diacid])AQ[Aib]AFIEYLLAGGPSSGAPPPSGS-NH2 [Example 14]							34.7	7.23	1.67	0.17	232	1420
H-Y[Aib]QGTFTSDFSK[αMeL]LDKK([AEEA-γGlu-C20 diacid])AQ[Aib]AFIEYLLAGGPSSGEPPPGGS-NH2 [Example 9]							41.8	7.19	1.61	0.205	402	1430
H-Y[Aib]QGTFTSDFSK[αMeL]LDKK([AEEA-γGlu-C20 diacid])AQ[Aib]AFIEYLLAGGPSSGEPPPSGG-NH2 [Example 6]							46.6	6.89	1.95	0.232	446	1380
H-Y[Aib]QGTFTSDFSK[αMeL]LDKK([AEEA-γGlu-C20 diacid])AQ[Aib]AFIEYLLEGAPSSGAPPPSEG-NH2 [Example 47]							154	5.61	3.4	0.388	1270	2140
H-Y[Aib]QGTFTSDFSK[αMeL]LDKK([AEEA-γGlu-C20 diacid])AQ[Aib]AFIEYLLEGGPSSGAPPP[γGlu]EG-NH2 [Example 52]							111	5.84	5.18	0.449	1250	1740
H-Y[Aib]QGTFTSDFSK[αMeL]LDKK([AEEA-γGlu-C20 diacid])AQ[Aib]AFIEYLLEGGPSSGAPPP[γGlu]GE-NH2 [Example 53]							113	4.19	3.31	0.518	1030	1780
H-Y[Aib]QGTFTSDFSK[αMeL]LDKK([AEEA-γGlu-C20 diacid])AQ[Aib]AFIEYLLEGGPSSGEPPPEEG-NH2 [Example 35]							194	4.32	3.05	0.55	1130	1390
H-Y[Aib]QGTFTSDFSK[αMeL]LDKK([AEEA-γGlu-C20 diacid])AQ[Aib]AFIEYLLEGGPSSGEPPPGEG[AEEA]-NH2 [Example 54]							168	3.77	3.95	0.502	1300	1940
H-Y[Aib]QGTFTSDFS[Dab][αMeL]LDKK([AEEA-γGlu-C18 diacid])AQ[Aib]AFIEYLIE[Aib]GPSSGAPPPSGS-NH2 [Example 799]							18.4	1.64	0.462	0.0668	179	574
H-Y[Aib]QGTFTSDFS[Dab][αMeL]LDKK([AEEA-γGlu-C18 diacid])AQ[Aib]AFIEYLLE[Aib]GPSSGAPPPSGS-NH2 [Example 133]							23.1	1.64	3.6	0.15	1180	642
H-Y[Aib]QGTFTSDFS[Dap][αMeL]LDKK([AEEA-γGlu-C18 diacid])AQ[Aib]AFIEYLIE[Aib]GPSSGAPPPSGS-NH2 [Example 800]							40.2	21	0.486	0.283	164	2500
H-Y[Aib]QGTFTSDFS[Dap][αMeL]LDKK([γGlu-γGlu-C18 diacid])AQ[Aib]AFIEYLLE[Aib]GPSSGAPPPSGS-NH2 [Example 203]							19	6.92	4.72	0.125	532	1160
